Experimental findings from publication PMC5814754, “Quantitative, Wide-Spectrum Kinase Profiling in Live Cells for Assessing the Effect of Cellular ATP on Target Engagement” (Cell Chemical Biology, 2018) are described below.

Molecules are shown by their SMILES.

Common to all, as to assay: Apparent affinity (EC50) of energy transfer probes by titration onto live HEK293 cells expressing kinase/Nluc fusions (Table S1)
Format in all cases: binding

The target in assay [1] is full-length kinase/Nluc fusion proteins (Homo sapiens, UniProt O14936). Conditions: CASK, Nluc N; read-out: Probe EC50.
Assay [2] deals with full-length kinase/Nluc fusion proteins (Homo sapiens, UniProt O43283). Particulars: MAP3K13, Nluc N; read-out: Probe EC50.
Assay [3] addresses full-length kinase/Nluc fusion proteins (Homo sapiens, UniProt P07949). Particulars: RET, Nluc C; read-out: Probe EC50.
The target in assay [4] is full-length kinase/Nluc fusion proteins (Homo sapiens, UniProt P29376). Conditions: LTK, Nluc C; read-out: Probe EC50.
Assay [5] addresses full-length kinase/Nluc fusion proteins (Homo sapiens, UniProt P29597). Conditions: TYK2 (NP_003322), Nluc orientation C; read-out: Probe EC50.
The target of assay [6] is full-length kinase/Nluc fusion proteins (Homo sapiens, UniProt P49759). Conditions: CLK1, Nluc N; read-out: Probe EC50.
Assay [7] addresses full-length kinase/Nluc fusion proteins (Homo sapiens, UniProt P49760). Conditions: CLK2, Nluc C; read-out: Probe EC50.
The target in assay [8] is full-length kinase/Nluc fusion proteins (Homo sapiens, UniProt P50613). Conditions: CDK7, Nluc C; read-out: Probe EC50.
The target of assay [9] is full-length kinase/Nluc fusion proteins (Homo sapiens, UniProt P52333). Conditions: JAK3, Nluc C; read-out: Probe EC50.
In assay [10] the target is full-length kinase/Nluc fusion proteins (Homo sapiens, UniProt P53667). Conditions: LIMK1, Nluc C; read-out: Probe EC50.
Assay [11] concerns the target full-length kinase/Nluc fusion proteins (Homo sapiens, UniProt P53779). Conditions: JNK3, Nluc C; read-out: Probe EC50.
Assay [12] has as its target full-length kinase/Nluc fusion proteins (Homo sapiens, UniProt Q00535). Conditions: CDK5, Nluc C; read-out: Probe EC50.
Assay [13] concerns the target full-length kinase/Nluc fusion proteins (Homo sapiens, UniProt Q02763). Conditions: TEK (NP_000450), Nluc orientation C; read-out: Probe EC50.
Assay [14] concerns the target full-length kinase/Nluc fusion proteins (Homo sapiens, UniProt Q05397). Conditions: PTK2, Nluc N; read-out: Probe EC50.
In assay [15] the target is full-length kinase/Nluc fusion proteins (Homo sapiens, UniProt Q06187). Particulars: BTK, Nluc C; read-out: Probe EC50.
The target of assay [16] is full-length kinase/Nluc fusion proteins (Homo sapiens, UniProt Q13627). Conditions: DYRK1A, Nluc N; read-out: Probe EC50.
Assay [17] addresses full-length kinase/Nluc fusion proteins (Homo sapiens, UniProt Q14164). Particulars: IKBKE, Nluc N; read-out: Probe EC50.
Assay [18] concerns the target full-length kinase/Nluc fusion proteins (Homo sapiens, UniProt Q14680). Conditions: MELK, Nluc N; read-out: Probe EC50.
The target of assay [19] is full-length kinase/Nluc fusion proteins (Homo sapiens, UniProt Q16584). Particulars: MAP3K11, Nluc N; read-out: Probe EC50.
Assay [20] has as its target full-length kinase/Nluc fusion proteins (Homo sapiens, UniProt Q6P5Z2). Conditions: PKN3, Nluc C; read-out: Probe EC50.
In assay [21] the target is full-length kinase/Nluc fusion proteins (Homo sapiens, UniProt Q8IWQ3). Conditions: BRSK2, Nluc N; read-out: Probe EC50.
Assay [22] deals with full-length kinase/Nluc fusion proteins (Homo sapiens, UniProt Q8NG66). Particulars: NEK11, Nluc N; read-out: Probe EC50.
Assay [23] concerns the target full-length kinase/Nluc fusion proteins (Homo sapiens, UniProt Q9NSY1). Conditions: BMP2K, Nluc N; read-out: Probe EC50.
In assay [24] the target is full-length kinase/Nluc fusion proteins (Homo sapiens, UniProt Q9P286). Conditions: PAK7, Nluc C; read-out: Probe EC50.
In assay [25] the target is full-length kinase/Nluc fusion proteins (Homo sapiens, UniProt P08631). Conditions: HCK, Nluc C; read-out: Probe EC50.
Assay [26] concerns the target full-length kinase/Nluc fusion proteins (Homo sapiens, UniProt P10721). Particulars: KIT, Nluc C; read-out: Probe EC50.
For assay [27], the target named is full-length kinase/Nluc fusion proteins (Homo sapiens, UniProt P21709). Particulars: EPHA1, Nluc C; read-out: Probe EC50.
The target of assay [28] is full-length kinase/Nluc fusion proteins (Homo sapiens, UniProt P42681). Conditions: TXK (NP_003319), Nluc orientation C; read-out: Probe EC50.
Assay [29] has as its target full-length kinase/Nluc fusion proteins (Homo sapiens, UniProt P53671). Conditions: LIMK2, Nluc C; read-out: Probe EC50.
For assay [30], the target named is full-length kinase/Nluc fusion proteins (Homo sapiens, UniProt Q08345). Conditions: DDR1, Nluc C; read-out: Probe EC50.
Assay [31] has as its target full-length kinase/Nluc fusion proteins (Homo sapiens, UniProt Q15569). Particulars: TESK1 (NP_006276), Nluc orientation N; read-out: Probe EC50.
The target in assay [32] is full-length kinase/Nluc fusion proteins (Homo sapiens, UniProt Q15759). Conditions: MAPK11, Nluc N; read-out: Probe EC50.
Assay [33] has as its target full-length kinase/Nluc fusion proteins (Homo sapiens, UniProt Q16539). Particulars: MAPK14, Nluc C; read-out: Probe EC50.

full-length kinase/Nluc fusion proteins (Homo sapiens, UniProt P53667), sequence (P53667 whole entry, the tested form may be a part): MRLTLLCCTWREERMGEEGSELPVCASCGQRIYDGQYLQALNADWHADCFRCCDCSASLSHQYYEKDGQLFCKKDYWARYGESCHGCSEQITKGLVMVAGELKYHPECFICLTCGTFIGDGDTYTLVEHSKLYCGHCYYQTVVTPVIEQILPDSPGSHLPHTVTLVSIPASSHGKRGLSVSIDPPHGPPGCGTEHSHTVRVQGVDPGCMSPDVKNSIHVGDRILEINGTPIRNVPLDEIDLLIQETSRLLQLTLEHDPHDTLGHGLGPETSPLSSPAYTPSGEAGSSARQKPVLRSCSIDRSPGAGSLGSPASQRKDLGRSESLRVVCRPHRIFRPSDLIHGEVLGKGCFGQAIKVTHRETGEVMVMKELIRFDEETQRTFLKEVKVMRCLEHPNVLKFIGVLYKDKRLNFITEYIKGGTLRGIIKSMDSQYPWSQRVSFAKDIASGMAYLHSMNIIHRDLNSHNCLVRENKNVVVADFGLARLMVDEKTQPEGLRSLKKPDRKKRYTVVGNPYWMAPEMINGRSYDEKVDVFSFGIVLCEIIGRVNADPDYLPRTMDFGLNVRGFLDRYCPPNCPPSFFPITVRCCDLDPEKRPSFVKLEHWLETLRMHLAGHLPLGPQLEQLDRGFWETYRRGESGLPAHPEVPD
full-length kinase/Nluc fusion proteins (Homo sapiens, UniProt Q9P286), sequence (Q9P286 whole entry, the tested form may be a part): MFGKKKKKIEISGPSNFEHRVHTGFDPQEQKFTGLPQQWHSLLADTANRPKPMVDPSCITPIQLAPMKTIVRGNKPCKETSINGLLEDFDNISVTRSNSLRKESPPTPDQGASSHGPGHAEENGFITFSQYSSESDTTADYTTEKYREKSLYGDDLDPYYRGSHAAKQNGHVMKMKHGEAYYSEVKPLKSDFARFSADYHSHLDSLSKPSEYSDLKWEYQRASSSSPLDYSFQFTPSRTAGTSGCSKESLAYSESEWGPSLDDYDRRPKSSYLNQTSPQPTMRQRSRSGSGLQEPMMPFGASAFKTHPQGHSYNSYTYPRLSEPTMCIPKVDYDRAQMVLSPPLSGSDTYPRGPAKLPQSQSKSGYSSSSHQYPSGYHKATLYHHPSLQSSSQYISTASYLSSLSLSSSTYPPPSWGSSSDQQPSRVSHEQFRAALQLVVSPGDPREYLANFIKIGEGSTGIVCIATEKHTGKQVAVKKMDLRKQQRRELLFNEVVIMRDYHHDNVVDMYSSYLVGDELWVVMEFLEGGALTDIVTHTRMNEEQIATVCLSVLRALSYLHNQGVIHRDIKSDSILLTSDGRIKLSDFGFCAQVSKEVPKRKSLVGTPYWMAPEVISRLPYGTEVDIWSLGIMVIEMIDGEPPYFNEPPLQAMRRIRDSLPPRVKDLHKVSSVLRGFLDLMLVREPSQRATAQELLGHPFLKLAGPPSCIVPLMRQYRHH
full-length kinase/Nluc fusion proteins (Homo sapiens, UniProt Q15759), sequence (Q15759 whole entry, the tested form may be a part): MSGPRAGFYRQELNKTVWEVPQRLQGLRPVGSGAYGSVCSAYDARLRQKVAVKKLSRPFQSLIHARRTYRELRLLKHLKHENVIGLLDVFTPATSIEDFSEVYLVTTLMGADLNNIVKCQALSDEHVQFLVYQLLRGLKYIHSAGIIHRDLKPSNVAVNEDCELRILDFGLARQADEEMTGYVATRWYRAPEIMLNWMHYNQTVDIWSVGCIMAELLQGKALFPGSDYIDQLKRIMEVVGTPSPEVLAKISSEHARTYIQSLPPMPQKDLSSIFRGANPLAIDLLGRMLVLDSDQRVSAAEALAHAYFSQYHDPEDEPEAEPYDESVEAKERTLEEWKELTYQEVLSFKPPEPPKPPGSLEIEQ
full-length kinase/Nluc fusion proteins (Homo sapiens, UniProt P49759), sequence (P49759 whole entry, the tested form may be a part): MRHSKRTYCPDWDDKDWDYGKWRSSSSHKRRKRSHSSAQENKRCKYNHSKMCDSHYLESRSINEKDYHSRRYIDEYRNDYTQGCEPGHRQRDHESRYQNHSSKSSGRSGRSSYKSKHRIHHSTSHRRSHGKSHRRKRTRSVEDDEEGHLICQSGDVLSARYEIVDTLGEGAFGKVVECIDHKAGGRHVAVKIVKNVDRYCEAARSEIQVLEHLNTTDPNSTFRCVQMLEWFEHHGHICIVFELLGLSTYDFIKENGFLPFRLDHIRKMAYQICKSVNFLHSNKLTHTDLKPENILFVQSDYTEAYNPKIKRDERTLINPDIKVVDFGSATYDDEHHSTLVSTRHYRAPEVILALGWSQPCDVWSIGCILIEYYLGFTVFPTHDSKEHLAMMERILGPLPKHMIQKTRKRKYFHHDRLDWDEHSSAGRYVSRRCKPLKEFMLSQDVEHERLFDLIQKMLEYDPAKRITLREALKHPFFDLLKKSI
full-length kinase/Nluc fusion proteins (Homo sapiens, UniProt Q9NSY1), sequence (Q9NSY1 whole entry, the tested form may be a part): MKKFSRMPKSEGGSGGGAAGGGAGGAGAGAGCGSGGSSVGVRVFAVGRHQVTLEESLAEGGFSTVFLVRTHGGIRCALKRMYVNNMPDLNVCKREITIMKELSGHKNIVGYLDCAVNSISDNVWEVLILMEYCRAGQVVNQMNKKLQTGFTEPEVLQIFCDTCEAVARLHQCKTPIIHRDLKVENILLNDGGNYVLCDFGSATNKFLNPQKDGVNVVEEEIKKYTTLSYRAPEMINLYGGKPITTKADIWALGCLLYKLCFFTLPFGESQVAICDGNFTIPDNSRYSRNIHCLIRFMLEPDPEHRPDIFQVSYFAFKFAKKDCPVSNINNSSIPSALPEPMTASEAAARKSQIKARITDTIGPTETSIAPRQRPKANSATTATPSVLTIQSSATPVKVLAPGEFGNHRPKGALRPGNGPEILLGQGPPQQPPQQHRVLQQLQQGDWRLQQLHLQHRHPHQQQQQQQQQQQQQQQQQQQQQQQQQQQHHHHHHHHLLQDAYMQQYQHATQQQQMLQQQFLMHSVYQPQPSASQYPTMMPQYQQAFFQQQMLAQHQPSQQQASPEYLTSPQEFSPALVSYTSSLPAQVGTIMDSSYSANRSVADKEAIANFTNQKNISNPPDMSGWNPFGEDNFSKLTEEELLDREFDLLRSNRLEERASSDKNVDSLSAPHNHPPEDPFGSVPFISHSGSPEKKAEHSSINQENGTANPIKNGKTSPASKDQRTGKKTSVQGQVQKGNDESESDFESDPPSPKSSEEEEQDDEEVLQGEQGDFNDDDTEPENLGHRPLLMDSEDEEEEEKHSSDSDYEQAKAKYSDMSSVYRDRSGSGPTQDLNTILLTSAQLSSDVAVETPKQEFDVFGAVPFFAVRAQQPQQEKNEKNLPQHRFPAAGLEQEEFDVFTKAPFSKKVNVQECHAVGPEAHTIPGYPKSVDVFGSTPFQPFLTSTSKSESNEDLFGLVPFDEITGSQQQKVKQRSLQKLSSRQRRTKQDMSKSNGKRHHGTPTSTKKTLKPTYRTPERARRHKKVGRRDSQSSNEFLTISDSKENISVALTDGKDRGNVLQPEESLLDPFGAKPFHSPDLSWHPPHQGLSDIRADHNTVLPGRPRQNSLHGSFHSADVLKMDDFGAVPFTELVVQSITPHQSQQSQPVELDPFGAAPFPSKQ
full-length kinase/Nluc fusion proteins (Homo sapiens, UniProt Q15569), sequence (Q15569 whole entry, the tested form may be a part): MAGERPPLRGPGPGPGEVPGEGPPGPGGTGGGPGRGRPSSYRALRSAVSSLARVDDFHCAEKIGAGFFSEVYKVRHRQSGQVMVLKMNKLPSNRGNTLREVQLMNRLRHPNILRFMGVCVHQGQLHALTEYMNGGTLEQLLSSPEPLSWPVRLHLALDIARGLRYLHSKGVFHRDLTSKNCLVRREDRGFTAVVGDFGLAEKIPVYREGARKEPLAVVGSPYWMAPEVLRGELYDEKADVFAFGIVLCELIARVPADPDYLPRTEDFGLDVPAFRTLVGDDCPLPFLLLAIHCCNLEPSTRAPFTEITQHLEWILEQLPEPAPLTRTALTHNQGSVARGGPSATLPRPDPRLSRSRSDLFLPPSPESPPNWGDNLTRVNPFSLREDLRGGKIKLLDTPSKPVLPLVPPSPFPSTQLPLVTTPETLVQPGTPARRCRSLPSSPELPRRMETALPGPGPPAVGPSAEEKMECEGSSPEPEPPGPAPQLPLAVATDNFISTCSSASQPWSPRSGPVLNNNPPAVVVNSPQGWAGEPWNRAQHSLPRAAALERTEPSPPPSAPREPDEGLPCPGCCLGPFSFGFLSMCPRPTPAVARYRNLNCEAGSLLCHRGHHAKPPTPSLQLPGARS
full-length kinase/Nluc fusion proteins (Homo sapiens, UniProt Q16539), sequence (Q16539 whole entry, the tested form may be a part): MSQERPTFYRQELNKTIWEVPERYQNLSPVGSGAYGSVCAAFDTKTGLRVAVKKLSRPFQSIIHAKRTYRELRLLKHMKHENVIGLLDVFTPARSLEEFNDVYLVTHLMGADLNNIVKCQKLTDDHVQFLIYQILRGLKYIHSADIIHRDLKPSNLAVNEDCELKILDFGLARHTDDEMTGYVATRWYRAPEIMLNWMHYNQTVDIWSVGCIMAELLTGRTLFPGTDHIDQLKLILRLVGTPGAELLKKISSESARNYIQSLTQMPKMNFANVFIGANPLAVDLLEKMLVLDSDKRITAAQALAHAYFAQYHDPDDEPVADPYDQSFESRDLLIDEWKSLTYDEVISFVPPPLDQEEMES
full-length kinase/Nluc fusion proteins (Homo sapiens, UniProt P42681), sequence (P42681 whole entry, the tested form may be a part): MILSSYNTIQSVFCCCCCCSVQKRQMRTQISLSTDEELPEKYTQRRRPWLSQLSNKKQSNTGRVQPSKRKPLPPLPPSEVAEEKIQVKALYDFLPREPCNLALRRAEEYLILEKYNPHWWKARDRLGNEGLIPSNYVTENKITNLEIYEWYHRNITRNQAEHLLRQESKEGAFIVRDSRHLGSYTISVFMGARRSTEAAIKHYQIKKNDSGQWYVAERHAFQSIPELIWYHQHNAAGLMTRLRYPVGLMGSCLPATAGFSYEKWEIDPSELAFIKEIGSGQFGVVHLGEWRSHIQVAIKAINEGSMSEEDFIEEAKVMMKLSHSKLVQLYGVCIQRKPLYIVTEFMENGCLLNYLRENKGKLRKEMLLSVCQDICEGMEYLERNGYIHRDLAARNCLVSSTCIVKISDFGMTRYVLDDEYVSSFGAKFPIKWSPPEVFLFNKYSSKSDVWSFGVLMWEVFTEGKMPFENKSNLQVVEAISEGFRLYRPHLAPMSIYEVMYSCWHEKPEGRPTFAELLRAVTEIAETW

On to `CNC(=O)c1ccccc1Nc1nc(Nc2ccc(N3CCN(C(=O)CCOCCOCCOCCOCCNC(=O)CCc4ccc5n4[B-](F)(F)[N+]4=C(c6ccc[nH]6)C=CC4=C5)CC3)cc2)ncc1Cl` [Energy Transfer Probe 5, 2-((2-((4-(4-(1-amino-3,6,9,12-tetraoxapentadecan-15-oyl)piperazin-1-yl)phenyl)amino)-5-chloropyrimidin-4-yl)amino)-N-methylbenzamide-NanoBRET 590], for which the EC50 in assay [1] was greater than 1000 nM; in [2] it was 200 nM; in assay [3] it was 500 nM; in assay [4], greater than 1000 nM; in assay [5], greater than 1000 nM; in assay [6] it was greater than 1000 nM. For the same compound, the EC50 in assay [7] was greater than 1000 nM; in assay [8], 300 nM; in assay [9] it was greater than 1000 nM; in assay [10], greater than 1000 nM; in assay [11], greater than 1000 nM; in [12] it was greater than 1000 nM. The concentration for a half-maximal effect (EC50) in [13] is 400 nM; in assay [14], 90 nM; in [15], 600 nM; in assay [16], greater than 1000 nM; in assay [17], greater than 1000 nM; in assay [18], greater than 1000 nM. Also, the EC50 in assay [19], in [20], in [21], in [22], in assay [23] and in assay [24] was greater than 1000 nM in each case.

`Cc1nc(Nc2ncc(C(=O)Nc3c(C)cccc3Cl)s2)cc(N2CCN(CCOCCNC(=O)CCc3ccc4n3[B-](F)(F)[N+]3=C(c5ccc[nH]5)C=CC3=C4)CC2)n1` [Energy Transfer Probe 6, 2-((6-(4-(2-(2-aminoethoxy)ethyl)piperazin-1-yl)-2-methylpyrimidin-4-yl)amino)-N-(2-chloro-6-methylphenyl)thiazole-5-carboxamide-NanoBRET 590]: the EC50 is greater than 1000 nM in assay [25]; 200 nM in assay [26]; 300 nM in [27]; 100 nM in assay [28]; greater than 1000 nM in assay [29]; 40 nM in assay [30]. Further, the EC50 is greater than 1000 nM in assay [31], 200 nM in assay [32] and 80 nM in [33].

One may read the EC50 as the midpoint of the concentration-response curve.
